Measurements as given in PubChem BioAssay (NCI).
“And” between values parts separate entries of the source, which are not always exact repeats. Identical values can stand only once.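 Each compound was tested at five concentrations against cells in 96-well plates for 48 hours. GI50 marks 50% less growth. At the TGI there is no net growth.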

Experiments:
Experiment in all cases: DTP human tumour cell line panel, 48 h
786-0 renal = test system: 786-0 renal
OVCAR-3 ovarian = test system: OVCAR-3 ovarian
MDA-MB-435 = test system: MDA-MB-435
UACC-257 melanoma = test system: UACC-257 melanoma
TK-10 renal = test system: TK-10 renal
UO-31 renal = test system: UO-31 renal
SNB-75 CNS = test system: SNB-75 CNS
HCT-116 colon = test system: HCT-116 colon
SN12C renal = test system: SN12C renal
NCI/ADR-RES ovarian = test system: NCI/ADR-RES ovarian

Row | Structure (SMILES) | GI50 (786-0 renal) | TGI (786-0 renal) | GI50 (OVCAR-3 ovarian) | TGI (OVCAR-3 ovarian) | GI50 (MDA-MB-435) [µM] | TGI (MDA-MB-435) [µM] | GI50 (UACC-257 melanoma) | TGI (UACC-257 melanoma) | GI50 (TK-10 renal) | TGI (TK-10 renal) | GI50 (UO-31 renal) | TGI (UO-31 renal) | GI50 (SNB-75 CNS) | TGI (SNB-75 CNS) | GI50 (HCT-116 colon) | TGI (HCT-116 colon) | GI50 (SN12C renal) | TGI (SN12C renal) [µM] | GI50 (NCI/ADR-RES ovarian) | TGI (NCI/ADR-RES ovarian)
1 | COC1CC2C=C(C)/C=C/C=C/C(=O)NC(c3ccccc3)C/C=C/CCC(O)CC(=O)C2=C1O (stereo unspecified) | 0.434 µM | 1.66 µM | 0.271 µM | 0.894 µM | 0.313 | 1.29 | 0.186 µM | 0.577 µM | 0.298 µM | 1.31 µM | 0.281 µM | 1.14 µM | 0.208 µM | 0.828 µM | 0.272 µM | 1.22 µM | 0.227 µM | 1.11 | 0.309 µM | 1.19 µM
2 | CCCCNN | – | > 100 µM | – | > 100 µM | – | > 100 | – | > 100 µM | – | > 100 µM | – | > 100 µM | – | > 100 µM | – | > 100 µM | – | > 100 | – | > 100 µM
3 | OCCSCc1ccccc1 | – | > 100 µM | – | > 100 µM | – | > 100 | – | > 100 µM | – | > 100 µM | – | > 100 µM | – | > 100 µM | – | > 100 µM | – | > 100 | – | > 100 µM
4 | CCN1C(=S)N(CC)C2C1NC(=S)N2/N=C/C=C/c1ccccc1 (stereo unspecified) | 5.19 µM | 19.2 µM | 0.52 µM | 4.97 µM | 0.272 | 0.856 | 3.68 µM | 19.5 µM | 7.65 µM | 23.1 µM | 3.55 µM | 18.3 µM | 1.09 µM | 5.65 µM | 1.3 µM | 12.4 µM | 3.49 µM | 16.8 | 1.54 µM | 12.6 µM
5 | CC/C=C\C[C@H](O)C/C=C1/C(=O)C=C[C@@H]1C/C=C\CCCC(=O)N(C)C | 0.504 µM | 2.09 µM | 0.471 µM | 1.79 µM | 0.862 | 2.37 | 2.37 µM | 7.31 µM | 2.61 µM | 7.48 µM | 1.41 µM | 2.93 µM | 10.9 µM | 33.4 µM | 0.44 µM | 1.68 µM | 2.6 µM | 10.9 | 1.08 µM | 7.9 µM
6 | CC(C)(C)NCc1cc(C(C)(C)C)cc(-c2ccc(Cl)cc2)c1O | – | 26.8 µM | – | 29.5 µM | – | 25.2 | – | 50.3 µM | – | 26 µM | – | 15.1 µM | – | 22.7 µM | – | 26 µM | – | 30.3 | – | 32.4 µM
7 | O=c1nc(Nc2cccc(Cl)c2)oc2cc(Cl)oc(=O)c12 | 20.2 µM | 66.4 µM | 3.48 µM | 13.3 µM | 5.34 | 20.8 | 10.3 µM | 23.9 µM | 5.11 µM | 24 µM | 5.46 µM | 21.7 µM | 6.96 µM | 21.4 µM | 10.7 µM | 41.3 µM | 10.4 µM | > 100 | 13.4 µM | 70.5 µM
8 | C=C1C(=O)OC2CC1C(O)C/C(C)=C/CC/C(C)=C/C(O)CC2C (stereo unspecified) | – | 3.99 µM | – | 9.2 µM | – | 13.4 | – | 10.3 µM | – | 6.91 µM | – | 6.66 µM | – | 16.3 µM | – | 3.33 µM | – | 4.83 | – | 4.8 µM
9 | Cc1sc(C)c(Cc2c(C)sc(C)c2CCl)c1CCl | > 100 µM | > 100 µM | > 100 µM | > 100 µM | > 100 | > 100 | > 100 µM | > 100 µM | > 100 µM | > 100 µM | > 100 µM | > 100 µM | 51.5 µM | > 100 µM | > 100 µM | > 100 µM | > 100 µM | > 100 | > 100 µM | > 100 µM
10 | CCOC(=O)C(Cc1c[nH]c2ccc(N(CCCl)CCCl)cc12)(NC(C)=O)C(=O)OCC | 4.78 µM and 3.71 µM | 23.3 µM and 21.8 µM | 23.4 µM and 14.4 µM | 65.7 µM and 35.1 µM | 16.9 | 33.1 | 17.6 µM and 23.9 µM | 52.6 µM and 94 µM | 22.2 µM and 17.6 µM | 60.5 µM and 62.7 µM | 20.7 µM and 10.5 µM | 53.8 µM and 46 µM | 11.5 µM and 6.53 µM | 67.9 µM and 57 µM | 11.7 µM and 10.9 µM | 31.3 µM and 37.9 µM | 8.82 µM and 8.93 µM | 564 | 14.6 µM and 11.7 µM | 47.3 µM and 64.3 µM
11 | NNc1nc2ccccc2c(=O)n1NC(=O)C(=O)Nc1cccc(C(F)(F)F)c1 | – | > 100 µM | – | > 100 µM | – | > 100 | – | > 100 µM | – | > 100 µM | – | > 100 µM | – | > 100 µM | – | > 100 µM | – | > 100 | – | > 100 µM
12 | Cn1c(=O)c(Oc2ccccc2F)cc2cnc(NC3CCOCC3)nc21 | > 25 µM | > 25 µM | > 25 µM | > 25 µM | > 25 | > 25 | > 25 µM | > 25 µM | > 25 µM | > 25 µM | > 14.4 µM | > 25 µM | > 19.8 µM | > 25 µM | > 25 µM | > 25 µM | > 25 µM | > 25 | > 25 µM | > 25 µM
13 | N=C(N=C(N)N)N1CCN(c2ccncc2)CC1 | > 1000 µM | > 1000 µM | > 1000 µM | > 1000 µM | > 1000 | > 1000 | > 1000 µM | > 1000 µM | > 1000 µM | > 1000 µM | > 1000 µM | > 1000 µM | > 1000 µM | > 1000 µM | > 1000 µM | > 1000 µM | > 1000 µM | > 1000 | > 1000 µM | > 1000 µM
14 | CCOC(=O)C(=Cc1ccccc1[N+](=O)[O-])C(=O)OCC | 3.85 µM | 11.8 µM | 2.65 µM | 6.48 µM | 3.08 | 12.1 | 3.25 µM | 14.3 µM | 5.39 µM | 15.7 µM | 4.52 µM | 15.9 µM | 2.57 µM | 9.68 µM | 2.53 µM | 7.56 µM | 2.85 µM | 11.3 | 2.59 µM | 7.8 µM
15 | COCCOC(=O)NC(=O)Nc1ccc(/C(=N/O)c2ccc(Cl)cc2)cc1 | 0.249 µM | 25.7 µM | 0.0991 µM | 4.4 µM | 0.092 | 0.374 | 13 µM | 48.9 µM | 16.5 µM | > 82.6 µM | 0.284 µM | 26.5 µM | 0.129 µM | 7.94 µM | 0.112 µM | 23.6 µM | 0.157 µM | 59.3 | – | 7.31 µM
16 | Cc1cc(C)c(C[N+](C)(C)C)c(C)c1C | 0.323 µM | 13.2 µM | 0.638 µM | 15.3 µM | 0.328 | 12.5 | 0.465 µM | 6.69 µM | 0.528 µM | 12.1 µM | 0.333 µM | 42.8 µM | 0.402 µM | 11.5 µM | 0.32 µM | 24.8 µM | 0.212 µM | 23.4 | 0.475 µM | 16.3 µM
17 | CC(C)c1ccc(C(=O)Nc2sc3c(c2C#N)CCC(=O)C3)cc1 | 0.67 µM | > 21.8 µM | 0.396 µM | 1.61 µM | 1.02 | 5.72 | 1.73 µM | 6.05 µM | 0.613 µM | 5.47 µM | 0.252 µM | 0.982 µM | 0.601 µM | 5.38 µM | 0.18 µM | > 24.3 µM | 0.378 µM | > 100 | 0.464 µM | 11.2 µM
18 | CN1CCCN(C)C1c1cc([N+](=O)[O-])ccc1O | – | > 100 µM | – | > 100 µM | – | > 100 | – | 61.3 µM | – | > 100 µM | – | 64.8 µM | – | > 100 µM | – | > 100 µM | – | 85.7 | – | > 100 µM
19 | COc1cc2c3c(n(CCCNCCN)c(=O)c2cc1OC)-c1cc2c(cc1C3=O)OCO2 | 0.312 µM | 2.5 µM | 0.363 µM | 1.21 µM | 1.02 | 4.56 | 1.95 µM | 14.1 µM | 2.9 µM | 18.9 µM | 5.26 µM | > 32.9 µM | 6.34 µM | 21.5 µM | 0.359 µM | 0.986 µM | 0.351 µM | 4.35 | 18.9 µM | > 62.4 µM
20 | COC(=O)c1c2c(c(C)[n+]([O-])c1C)C(=O)C=C(NCc1ccc(F)c(F)c1)C2=O | 1.35 µM | 3.58 µM | 0.256 µM | 0.766 µM | 0.131 | 0.27 | 0.225 µM | 0.657 µM | 2.06 µM | 4.82 µM | 1.11 µM | 2.35 µM | 1.63 µM | 2.99 µM | 0.256 µM | 0.902 µM | 0.294 µM | 1.03 | 0.313 µM | 1.65 µM
21 | C#CC1(O)C(COP(=O)(O)OC2CC(n3cc(F)c(=O)[nH]c3=O)OC2CO)OC(n2ccc(N)nc2=O)C1O (stereo unspecified) | < 0.0117 µM | > 100 µM | 0.031 µM | – | < 0.0176 | 0.545 | 0.0663 µM | 2.18 µM | 0.0273 µM | > 42.8 µM | < 0.0128 µM | – | < 0.0169 µM | 1.18 µM | < 0.01 µM | > 100 µM | < 0.0106 µM | > 100 | < 0.012 µM | –
